Assay results as given in patent US9550772B2, “Azaindole derivatives as multi kinase inhibitors” (ORIBASE PHARMA, priority 2012, dated 2017).
pEC50: −log10 of the molar value. Like-named read-outs stand apart in the source and are kept apart here.

Tests used:
[1] = tested on: A549 cell line; test: In vitro cell proliferation assay (MTT); type: cell-based; settings: Homo sapiens, A549, 72 h, EC50 ≧ 1 μM, read-out: EC50, anti-proliferative activity
In short: (§1)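 Cells (5×10^3 per well for cancer lines, 1×10^4 for HRMEC) incubated in duplicate with 10 nM to 3 μM compound for 72 hr. Proliferation read by MTT; EC50 from sigmoidal fits normalised to DMSO (0%) and 1% SDS (100%) controls.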

[2] = tested on: HUVEC cells; test: In vitro cell proliferation assay (MTT); type: cell-based; settings: Homo sapiens, 72 hr, read-out: EC50, anti-proliferative activity
In short: as §1

[3] = tested on: HT29 cell line; test: In vitro cell proliferation assay (MTT); type: cell-based; settings: Homo sapiens, HT-29, HT29, 72 hr, EC50 ≧ 1 μM, read-out: EC50, anti-proliferative activity
In short: as §1

[4] = tested on: HepG2 cell line; test: In vitro cell proliferation assay (MTT); type: cell-based; settings: Homo sapiens, HepG2, 72 hr, EC50 ≧ 1 μM, read-out: EC50, anti-proliferative activity
In short: as §1

[5] = tested on: H1975 cell line; test: In vitro cell proliferation assay (MTT); type: cell-based; settings: Homo sapiens, NCI-H1975, H1975, 72 hr, EC50 ≧ 1 μM, read-out: EC50, anti-proliferative activity
In short: as §1

[6] = tested on: HuCCT1 cell line; test: In vitro cell proliferation assay (MTT); type: cell-based; settings: Homo sapiens, HuCCT-1, HuCCT1, 72 hr, read-out: EC50, anti-proliferative activity
In short: as §1

[7] = target: T1, FGFR2 (Homo sapiens, UniProt P21802); test: In vitro kinase assay (Z'-LYTE, Invitrogen); type: biochemical; settings: compound at 100 nM, ATP Km apparent, read-out: % of inhibition of the kinase compared to the control
T1 construct: purchased Invitrogen
T1 sequence (P21802 22-821): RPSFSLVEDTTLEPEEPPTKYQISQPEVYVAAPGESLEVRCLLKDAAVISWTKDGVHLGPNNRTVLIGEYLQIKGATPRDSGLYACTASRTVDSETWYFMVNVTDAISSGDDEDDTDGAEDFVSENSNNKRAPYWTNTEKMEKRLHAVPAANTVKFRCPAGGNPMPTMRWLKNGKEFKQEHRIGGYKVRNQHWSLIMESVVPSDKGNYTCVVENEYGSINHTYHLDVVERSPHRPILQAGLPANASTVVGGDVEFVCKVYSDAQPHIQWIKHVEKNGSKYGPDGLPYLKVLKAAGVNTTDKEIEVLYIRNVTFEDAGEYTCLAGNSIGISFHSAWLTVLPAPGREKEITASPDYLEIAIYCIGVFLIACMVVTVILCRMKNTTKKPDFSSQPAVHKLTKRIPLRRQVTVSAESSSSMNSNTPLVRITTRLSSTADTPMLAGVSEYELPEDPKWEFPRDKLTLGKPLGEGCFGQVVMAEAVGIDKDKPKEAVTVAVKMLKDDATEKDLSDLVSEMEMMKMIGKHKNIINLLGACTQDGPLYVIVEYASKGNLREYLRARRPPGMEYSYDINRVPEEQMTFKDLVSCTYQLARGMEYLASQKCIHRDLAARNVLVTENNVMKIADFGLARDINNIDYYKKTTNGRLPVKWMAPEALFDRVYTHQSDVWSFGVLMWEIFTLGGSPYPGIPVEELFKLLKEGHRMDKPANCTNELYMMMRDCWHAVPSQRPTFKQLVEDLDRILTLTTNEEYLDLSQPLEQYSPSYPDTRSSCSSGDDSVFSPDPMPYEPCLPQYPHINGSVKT
In short: (§2)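 Z′-LYTE, coupled-enzyme FRET format; single dose 100 nM cpd, 1% DMSO. Buffer: 50 mM HEPES pH 7.5, 10 mM MgCl2, 1 mM EGTA, 0.01% BRIJ-35. ATP = apparent Km. Readout: donor/acceptor emission ratio, ex 400 nm → % inhibition.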

[8] = target: T2, EGFR (ErbB1) (Homo sapiens, UniProt P00533); test: In vitro kinase assay (Z'-LYTE, Invitrogen); type: biochemical; settings: compound at 100 nM, ATP Km apparent, read-out: % of inhibition of the kinase compared to the control
T2 construct: purchased Invitrogen
T2 sequence (P00533 25-1210): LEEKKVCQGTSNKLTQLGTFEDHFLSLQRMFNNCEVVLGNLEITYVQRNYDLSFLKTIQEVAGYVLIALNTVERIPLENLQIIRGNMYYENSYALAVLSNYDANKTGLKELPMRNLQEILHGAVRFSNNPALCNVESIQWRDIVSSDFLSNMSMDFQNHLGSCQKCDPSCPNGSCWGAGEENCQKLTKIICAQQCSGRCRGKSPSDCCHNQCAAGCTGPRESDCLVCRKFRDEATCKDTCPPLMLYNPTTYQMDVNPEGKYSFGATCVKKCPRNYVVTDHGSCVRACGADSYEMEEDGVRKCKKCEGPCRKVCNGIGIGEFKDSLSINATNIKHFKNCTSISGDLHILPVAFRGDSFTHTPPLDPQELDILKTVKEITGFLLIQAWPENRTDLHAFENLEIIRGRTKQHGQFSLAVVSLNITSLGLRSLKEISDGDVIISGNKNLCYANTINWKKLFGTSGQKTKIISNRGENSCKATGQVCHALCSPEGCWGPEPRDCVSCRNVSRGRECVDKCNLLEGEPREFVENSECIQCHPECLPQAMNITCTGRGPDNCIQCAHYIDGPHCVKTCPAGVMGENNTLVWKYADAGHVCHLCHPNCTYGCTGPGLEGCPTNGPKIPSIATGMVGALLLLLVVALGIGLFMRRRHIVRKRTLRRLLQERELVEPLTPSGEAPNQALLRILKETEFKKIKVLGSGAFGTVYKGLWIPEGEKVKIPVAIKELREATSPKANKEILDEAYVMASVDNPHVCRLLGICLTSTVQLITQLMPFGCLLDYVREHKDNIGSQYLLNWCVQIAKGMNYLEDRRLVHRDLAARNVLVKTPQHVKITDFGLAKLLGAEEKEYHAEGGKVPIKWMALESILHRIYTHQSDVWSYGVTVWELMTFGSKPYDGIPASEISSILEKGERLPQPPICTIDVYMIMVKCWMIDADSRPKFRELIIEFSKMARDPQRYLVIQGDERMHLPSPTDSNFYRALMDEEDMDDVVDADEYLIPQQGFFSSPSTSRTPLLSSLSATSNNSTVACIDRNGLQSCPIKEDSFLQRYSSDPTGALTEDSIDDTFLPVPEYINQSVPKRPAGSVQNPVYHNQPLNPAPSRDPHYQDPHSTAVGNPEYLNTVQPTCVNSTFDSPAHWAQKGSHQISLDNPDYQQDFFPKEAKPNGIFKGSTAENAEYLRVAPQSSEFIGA
In short: as §2

[9] = target: T3, KDR (VEGFR2) (Homo sapiens, UniProt P35968); test: In vitro kinase assay (Z'-LYTE, Invitrogen); type: biochemical; settings: compound at 100 nM, ATP Km apparent, read-out: % of inhibition of the kinase compared to the control
T3 construct: purchased Invitrogen
In short: as §2

[10] = target: T4, BRAF (Homo sapiens, UniProt P15056); test: In vitro kinase assay (Z'-LYTE, Invitrogen); type: biochemical; settings: compound at 100 nM, ATP Km apparent, read-out: % of inhibition of the kinase compared to the control
T4 construct: purchased Invitrogen
T4 sequence (P15056 whole entry): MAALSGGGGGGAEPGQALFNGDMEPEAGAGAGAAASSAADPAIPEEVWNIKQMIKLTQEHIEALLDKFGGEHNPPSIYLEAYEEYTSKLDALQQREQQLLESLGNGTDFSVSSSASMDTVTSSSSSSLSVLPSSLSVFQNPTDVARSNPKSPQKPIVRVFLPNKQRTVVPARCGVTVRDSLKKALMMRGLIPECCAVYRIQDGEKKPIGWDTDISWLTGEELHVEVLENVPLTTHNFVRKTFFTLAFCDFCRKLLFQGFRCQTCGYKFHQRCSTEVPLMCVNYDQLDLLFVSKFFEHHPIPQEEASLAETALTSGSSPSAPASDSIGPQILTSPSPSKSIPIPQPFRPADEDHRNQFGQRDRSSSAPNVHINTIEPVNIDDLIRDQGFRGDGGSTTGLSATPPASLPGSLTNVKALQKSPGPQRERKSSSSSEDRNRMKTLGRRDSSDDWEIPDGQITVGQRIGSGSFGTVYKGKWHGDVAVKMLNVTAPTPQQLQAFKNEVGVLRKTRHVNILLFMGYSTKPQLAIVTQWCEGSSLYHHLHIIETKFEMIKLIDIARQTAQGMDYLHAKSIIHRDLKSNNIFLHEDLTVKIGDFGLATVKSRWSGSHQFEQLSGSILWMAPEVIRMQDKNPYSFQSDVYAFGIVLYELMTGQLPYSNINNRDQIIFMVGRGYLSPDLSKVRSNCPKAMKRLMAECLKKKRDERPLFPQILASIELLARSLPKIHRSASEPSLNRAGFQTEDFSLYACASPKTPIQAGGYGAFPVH
In short: as §2

[11] = target: T5, EGFR (ErbB1) T790M L858R (Homo sapiens, UniProt P00533, L858R/T790M); test: In vitro kinase assay (Z'-LYTE, Invitrogen); type: biochemical; settings: compound at 100 nM, ATP Km apparent, read-out: % of inhibition of the kinase compared to the control
T5 construct: purchased Invitrogen
In short: as §2

[12] = target: T6, PDGFRA (PDGFR alpha) (Homo sapiens, UniProt P16234); test: In vitro kinase assay (Z'-LYTE, Invitrogen); type: biochemical; settings: compound at 100 nM, ATP Km apparent, read-out: % of inhibition of the kinase compared to the control
T6 construct: purchased Invitrogen
T6 sequence (P16234 24-1089): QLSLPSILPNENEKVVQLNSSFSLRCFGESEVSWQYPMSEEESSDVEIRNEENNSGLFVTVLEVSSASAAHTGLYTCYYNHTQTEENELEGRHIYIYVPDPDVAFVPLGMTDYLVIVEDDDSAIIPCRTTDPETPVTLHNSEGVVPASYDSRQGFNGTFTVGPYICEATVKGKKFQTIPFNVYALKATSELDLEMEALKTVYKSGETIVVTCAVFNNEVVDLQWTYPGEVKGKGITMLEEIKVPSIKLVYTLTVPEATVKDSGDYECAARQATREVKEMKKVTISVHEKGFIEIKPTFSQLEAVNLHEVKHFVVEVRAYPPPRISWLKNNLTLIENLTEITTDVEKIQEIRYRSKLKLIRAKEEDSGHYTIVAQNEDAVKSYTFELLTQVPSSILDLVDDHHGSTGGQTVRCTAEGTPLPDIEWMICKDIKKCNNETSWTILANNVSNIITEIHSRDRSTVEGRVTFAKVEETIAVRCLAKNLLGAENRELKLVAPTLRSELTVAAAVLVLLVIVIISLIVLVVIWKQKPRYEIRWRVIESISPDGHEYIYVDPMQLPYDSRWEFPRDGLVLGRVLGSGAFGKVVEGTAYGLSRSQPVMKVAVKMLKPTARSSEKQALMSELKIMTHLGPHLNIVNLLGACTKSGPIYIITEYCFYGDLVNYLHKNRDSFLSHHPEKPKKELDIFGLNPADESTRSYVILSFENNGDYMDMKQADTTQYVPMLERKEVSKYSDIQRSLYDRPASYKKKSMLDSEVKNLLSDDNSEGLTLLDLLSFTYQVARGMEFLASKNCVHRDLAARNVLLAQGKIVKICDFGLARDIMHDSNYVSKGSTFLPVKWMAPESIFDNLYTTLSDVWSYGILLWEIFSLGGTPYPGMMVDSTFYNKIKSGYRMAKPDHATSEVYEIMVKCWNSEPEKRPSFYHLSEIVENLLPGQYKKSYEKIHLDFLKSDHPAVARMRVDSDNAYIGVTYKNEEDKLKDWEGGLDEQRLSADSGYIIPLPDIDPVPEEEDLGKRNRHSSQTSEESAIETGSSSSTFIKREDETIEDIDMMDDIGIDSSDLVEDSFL
In short: as §2

[13] = target: T7, SRC (Homo sapiens, UniProt P12931); test: In vitro kinase assay (Z'-LYTE, Invitrogen); type: biochemical; settings: compound at 100 nM, ATP Km apparent, read-out: % of inhibition of the kinase compared to the control
T7 construct: purchased Invitrogen
T7 sequence (P12931 whole entry): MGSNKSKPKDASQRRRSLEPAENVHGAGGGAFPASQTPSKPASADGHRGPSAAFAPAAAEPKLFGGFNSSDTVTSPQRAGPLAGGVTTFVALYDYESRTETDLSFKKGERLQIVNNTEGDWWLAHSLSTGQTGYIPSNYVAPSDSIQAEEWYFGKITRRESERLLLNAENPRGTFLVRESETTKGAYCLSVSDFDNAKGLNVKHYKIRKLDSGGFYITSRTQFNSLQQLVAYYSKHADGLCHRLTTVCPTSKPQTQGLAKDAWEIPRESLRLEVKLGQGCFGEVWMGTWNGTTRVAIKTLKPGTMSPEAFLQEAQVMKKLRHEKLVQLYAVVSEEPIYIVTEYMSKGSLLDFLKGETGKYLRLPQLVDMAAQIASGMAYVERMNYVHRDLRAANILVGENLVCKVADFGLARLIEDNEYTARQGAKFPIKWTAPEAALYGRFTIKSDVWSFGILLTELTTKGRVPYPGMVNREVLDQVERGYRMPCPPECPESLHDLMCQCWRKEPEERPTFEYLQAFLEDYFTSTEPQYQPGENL
In short: as §2

[14] = tested on: HuH6 Clone 5 cell line; test: In vitro cell proliferation assay (MTT); type: cell-based; settings: HUH-6-clone5, HuH6 Clone 5, 72 hr, EC50 ≧ 1 μM, read-out: EC50, anti-proliferative activity
In short: as §1

[15] = tested on: HuH7 cell line; test: In vitro cell proliferation assay (MTT); type: cell-based; settings: Homo sapiens, Huh-7, HuH7, 72 hr, read-out: EC50, anti-proliferative activity
In short: as §1

[16] = tested on: MDA-MB-231 cell line; test: In vitro cell proliferation assay (MTT); type: cell-based; settings: Homo sapiens, MDA-MB-231, 72 hr, EC50 ≧ 1 μM, read-out: EC50, anti-proliferative activity
In short: as §1

Row | Structure (SMILES) | pEC50 [1] | pEC50 [3] | pEC50 [4] | pEC50 [5] | inhibition at 0.1 µM [7] [%] | inhibition at 0.1 µM [8] [%] | inhibition at 0.1 µM [9] [%] | inhibition at 0.1 µM [10] [%] | inhibition at 0.1 µM [11] [%] | inhibition at 0.1 µM [12] [%] | inhibition at 0.1 µM [13] [%] | pEC50 [14] | pEC50 ([15]; 100 nM < EC50 < 1 μM) | pEC50 ([15]; EC50 ≧ 1 μM) | pEC50 [16] | pEC50 ([2]; EC50 ≧ 1 μM) | pEC50 ([6]; EC50 ≧ 1 μM) | pEC50 ([2]; 100 nM < EC50 < 1 μM) | pEC50 ([6]; 100 nM < EC50 < 1 μM)
1 | C#Cc1cccc(Nc2ncnc3cc(OCCOC)c(OCCOC)cc23)c1 [Erlotinib, reference compound] | ≤ 6.00 | ≤ 6.00 |  |  |  |  |  |  |  |  |  |  |  |  |  | ≤ 6.00 |  |  | 
2 | COC(=O)c1cc2cc(C=Cc3cc(NC(=O)c4ccc(CN5CCC(N(C)C)C5)c(C(F)(F)F)c4)ccc3C)cnc2[nH]1 (centres unmarked) [OR0778, 5-(2-{5-[4-(3-Dimethylamino-pyrrolidin-1-ylmethyl)-3-trifluoromethyl-benzoylamino]-2-methyl-phenyl}-vinyl)-1H-pyrrolo[2,3-b]pyridine-2-carboxylic acid methyl ester] |  |  | ≤ 6.00 |  | < 50 | ≥ 50 | ≥ 50 | < 50 |  | ≥ 50 | ≥ 50 | ≤ 6.00 |  | ≤ 6.00 | ≤ 6.00 | ≤ 6.00 | ≤ 6.00 |  | 
3 | CC(=O)c1cc2cc(CCc3cc(NC(=O)c4ccc(CN5CCN(C)CC5)cc4)ccc3C)cnc2[nH]1 [OR0799, N-{3-[2-(2-Acetyl-1H-pyrrolo[2,3-b]pyridin-5-yl)-ethyl]-4-methyl-phenyl}-4-(4-methyl-piperazin-1-ylmethyl)-benzamide] |  |  | ≤ 6.00 |  | < 50 | ≥ 50 | ≥ 50 | ≥ 50 |  | ≥ 50 | ≥ 50 | ≤ 6.00 | 6.00 to 7.00 |  |  |  |  | 6.00 to 7.00 | 6.00 to 7.00
4 | CC(=O)c1cc2cc(CCc3cc(NC(=O)c4cncc(C(F)(F)F)c4)ccc3C)cnc2[nH]1 [OR0800, N-{3-[2-(2-Acetyl-1H-pyrrolo[2,3-b]pyridin-5-yl)-ethyl]-4-methyl-phenyl}-5-trifluoromethyl-nicotinamide] |  |  | ≤ 6.00 |  | < 50 | < 50 | ≥ 50 | ≥ 50 |  | ≥ 50 | ≥ 50 | ≤ 6.00 |  | ≤ 6.00 |  |  | ≤ 6.00 | 6.00 to 7.00 | 

Further lines, with some results ahead:

Row | pEC50 [1] | pEC50 [3] | pEC50 [4] | pEC50 [5] | inhibition at 0.1 µM [7] [%] | inhibition at 0.1 µM [8] [%] | inhibition at 0.1 µM [9] [%] | inhibition at 0.1 µM [10] [%] | inhibition at 0.1 µM [11] [%] | inhibition at 0.1 µM [12] [%] | inhibition at 0.1 µM [13] [%] | pEC50 [14] | pEC50 ([15]; 100 nM < EC50 < 1 μM) | pEC50 ([15]; EC50 ≧ 1 μM) | pEC50 [16] | Structure (SMILES) | pEC50 ([2]; EC50 ≧ 1 μM) | pEC50 ([6]; EC50 ≧ 1 μM) | pEC50 ([2]; 100 nM < EC50 < 1 μM) | pEC50 ([6]; 100 nM < EC50 < 1 μM)
5 | ≤ 6.00 | ≤ 6.00 | ≤ 6.00 | ≤ 6.00 | < 50 | < 50 | < 50 | < 50 | < 50 | < 50 | < 50 |  |  |  |  | COC(=O)c1cc2cc(CNc3cc(NC(=O)c4ccc(C)cc4)ccc3C)cnc2[nH]1 [OR0738, 5-{[2-Methyl-5-(4-methyl-benzoylamino)-phenylamino]-methyl}-1H-pyrrolo[2,3-b]pyridine-2-carboxylic acid methyl ester] | ≤ 6.00 | ≤ 6.00 |  | 
6 |  |  | ≤ 6.00 |  | ≥ 50 | ≥ 50 | ≥ 50 | ≥ 50 | ≥ 50 | ≥ 50 | ≥ 50 | ≤ 6.00 | 6.00 to 7.00 |  |  | COC(=O)c1cc2cc(CCc3cc(NC(=O)c4ccc(CN5CCC(N(C)C)C5)c(C(F)(F)F)c4)ccc3C)cnc2[nH]1 (centres unmarked) [OR0775, 5-(2-{5-[4-(3-Dimethylamino-pyrrolidin-1-ylmethyl)-3-trifluoromethyl-benzoylamino]-2-methyl-phenyl}-ethyl)-1H-pyrrolo[2,3-b]pyridine-2-carboxylic acid methyl ester] |  | ≤ 6.00 | 6.00 to 7.00 | 
